From PubChem BioAssay AID248 (DTP/NCI, 2004)
Several values for one entry are separate records, joined by “and”; a condition that tells them apart may be missing. Identical values can stand only once. Inconclusive results and toxic doses are left out. Cut-off read from the data, not from the text of the source: active = T/C of 150% or more; inactive = T/C below 125%.

Tested on: L1210 leukemia ip in BDF1 mice, survival T/C
Experiment: NCI In Vivo Anticancer Drug Screen. Data for tumor model L1210 Leukemia (intraperitoneal) in B6D2F1 (BDF1) mice
Conditions: endpoint: mean survival time, higher = longer survival
Method: The antitumor activity of compounds was measured in mice bearing transplantable tumors. Survival or tumor size were measured and the results are expressed as the measurement made in the treated group (T) divided by the measurement made in the vehicle treated control group (C). The tumor model used in this assay is L1210 Leukemia (intraperitoneal) in B6D2F1 (BDF1) mice

[1] = dose: 100.0 mg/kg/injection, schedule: Q04DX002 (ip), vehicle: saline with Tween-80
[2] = dose: 200.0 mg/kg/injection, schedule: Q04DX002 (ip), vehicle: saline with Tween-80
[3] = dose: 400.0 mg/kg/injection, schedule: Q04DX002 (ip), vehicle: saline with Tween-80
[4] = dose: 100.0 mg/kg/injection, schedule: Q01DX009 (ip), vehicle: saline with Tween-80
[5] = dose: 100.0 mg/kg/injection, schedule: Q04DX003 (ip), vehicle: saline
[6] = dose: 200.0 mg/kg/injection, schedule: Q01DX009 (ip), vehicle: saline with Tween-80
[7] = dose: 400.0 mg/kg/injection, schedule: Q01DX009 (ip), vehicle: saline with Tween-80
[8] = dose: 100.0 mg/kg/injection, schedule: Q04DX002 (ip), vehicle: Klucel (hydroxypropylcellulose) (HPC)
[9] = dose: 200.0 mg/kg/injection, schedule: Q04DX002 (ip), vehicle: Klucel (hydroxypropylcellulose) (HPC)
[10] = dose: 100.0 mg/kg/injection, schedule: Q01DX001 (ip), vehicle: carboxymethylcellulose (CMC)
[11] = dose: 200.0 mg/kg/injection, schedule: Q01DX001 (ip), vehicle: carboxymethylcellulose (CMC)
[12] = dose: 100.0 mg/kg/injection, schedule: Q04DX002 (ip), vehicle: saline
[13] = dose: 200.0 mg/kg/injection, schedule: Q04DX002 (ip), vehicle: saline
[14] = dose: 400.0 mg/kg/injection, schedule: Q04DX002 (ip), vehicle: saline
[15] = dose: 100.0 mg/kg/injection, schedule: Q04DX003 (ip), vehicle: Klucel (hydroxypropylcellulose) (HPC)
[16] = dose: 200.0 mg/kg/injection, schedule: Q04DX003 (ip), vehicle: Klucel (hydroxypropylcellulose) (HPC)
[17] = dose: 400.0 mg/kg/injection, schedule: Q04DX003 (ip), vehicle: Klucel (hydroxypropylcellulose) (HPC)
[18] = dose: 100.0 mg/kg/injection, schedule: Q01DX001 (ip), vehicle: saline
[19] = dose: 200.0 mg/kg/injection, schedule: Q01DX001 (ip), vehicle: saline

Measured: T/C

CC(O)(C(=O)O)C(O)C(O)CO (stereo not given)
inactive: [1] 100 % of control | [2] 88 % of control | [3] 100 % of control

Cc1ccc(C(C)C)c(OC(=O)Nc2cc(Cl)ccc2C)c1
inactive: dose: 100.0 mg/kg/injection, schedule: Q01DX001 (ip), vehicle: saline with Tween-80 98 % of control | [4] 100 % of control and 102 % of control | [1] 87 % of control and 88 % of control | [5] 92 % of control | dose: 200.0 mg/kg/injection, schedule: Q01DX001 (ip), vehicle: saline with Tween-80 95 % of control | [6] 102 % of control and 113 % of control | [2] 102 % of control and 89 % of control | dose: 200.0 mg/kg/injection, schedule: Q04DX003 (ip), vehicle: saline 92 % of control | dose: 400.0 mg/kg/injection, schedule: Q01DX001 (ip), vehicle: saline with Tween-80 93 % of control | [7] 100 % of control and 89 % of control | [3] 89 % of control and 91 % of control | dose: 400.0 mg/kg/injection, schedule: Q04DX003 (ip), vehicle: saline 92 % of control

CS(=O)(=O)CCCl
inactive: dose: 100.0 mg/kg/injection, schedule: Q01DX009 (ip), vehicle: carboxymethylcellulose (CMC) 102 % of control and 106 % of control | [8] 103 % of control | dose: 100.0 mg/kg/injection, schedule: Q04DX002 (ip), vehicle: carboxymethylcellulose (CMC) 100 % of control and 109 % of control | dose: 100.0 mg/kg/injection, schedule: Q04DX003 (ip), vehicle: carboxymethylcellulose (CMC) 107 % of control | dose: 200.0 mg/kg/injection, schedule: Q01DX009 (ip), vehicle: carboxymethylcellulose (CMC) 98 % of control and 102 % of control | [9] 103 % of control | dose: 200.0 mg/kg/injection, schedule: Q04DX002 (ip), vehicle: carboxymethylcellulose (CMC) 97 % of control and 98 % of control | dose: 200.0 mg/kg/injection, schedule: Q04DX003 (ip), vehicle: carboxymethylcellulose (CMC) 98 % of control | dose: 400.0 mg/kg/injection, schedule: Q04DX002 (ip), vehicle: Klucel (hydroxypropylcellulose) (HPC) 103 % of control | dose: 400.0 mg/kg/injection, schedule: Q04DX002 (ip), vehicle: carboxymethylcellulose (CMC) 102 % of control and 105 % of control | dose: 400.0 mg/kg/injection, schedule: Q04DX003 (ip), vehicle: carboxymethylcellulose (CMC) 102 % of control

O=CNc1cccc2c1-c1ccccc1C2=O
inactive: [10] 96 % of control | [11] 91 % of control | dose: 400.0 mg/kg/injection, schedule: Q01DX001 (ip), vehicle: carboxymethylcellulose (CMC) 99 % of control

Cc1cc(=O)[nH]c(/N=C(\N)Nc2ccc(Cl)cc2)n1
inactive: [12] 93 % of control | [13] 99 % of control | [14] 96 % of control

CC12OC1(C)C1(CO1)C1(C)OC1(C)C2=O (stereo not given)
inactive: dose: 100.0 mg/kg/injection, schedule: Q01DX001 (ip), vehicle: Klucel (hydroxypropylcellulose) (HPC) 94 % of control | dose: 200.0 mg/kg/injection, schedule: Q01DX001 (ip), vehicle: Klucel (hydroxypropylcellulose) (HPC) 97 % of control | dose: 400.0 mg/kg/injection, schedule: Q01DX001 (ip), vehicle: Klucel (hydroxypropylcellulose) (HPC) 87 % of control

CCOCC1c2ccccc2CCN1Cc1c[nH]c2ccccc12 (stereo not given)
inactive: dose: 50.0 mg/kg/injection, schedule: Q01DX001 (ip), vehicle: carboxymethylcellulose (CMC) 97 % of control | [10] 89 % of control | [11] 90 % of control

O=C(O)CCCc1nccc2ccccc12
inactive: dose: 75.0 mg/kg/injection, schedule: Q01DX001 (ip), vehicle: saline 102 % of control | dose: 150.0 mg/kg/injection, schedule: Q01DX001 (ip), vehicle: saline 92 % of control

O=S(=O)(/C=C/c1ccccc1)Oc1ccc(-c2ccccc2)cc1
inactive: dose: 100.0 mg/kg/injection, schedule: Q01DX001 (ip), vehicle: acetone 104 % of control | dose: 100.0 mg/kg/injection, schedule: Q01DX009 (ip), vehicle: acetone 90 % of control | dose: 100.0 mg/kg/injection, schedule: Q04DX003 (ip), vehicle: acetone 97 % of control | dose: 200.0 mg/kg/injection, schedule: Q01DX001 (ip), vehicle: acetone 98 % of control | dose: 200.0 mg/kg/injection, schedule: Q04DX003 (ip), vehicle: acetone 91 % of control | dose: 400.0 mg/kg/injection, schedule: Q01DX001 (ip), vehicle: acetone 98 % of control | dose: 400.0 mg/kg/injection, schedule: Q01DX009 (ip), vehicle: acetone 90 % of control | dose: 400.0 mg/kg/injection, schedule: Q04DX003 (ip), vehicle: acetone 91 % of control

N#Cc1ccc(O)c(-c2ccccn2)c1
inactive: [15] 94 % of control | [16] 93 % of control | [17] 94 % of control

CC(=O)OCC(C)(C)c1ccccc1
inactive: [12] 105 % of control | [13] 97 % of control | [14] 105 % of control

CCOC(=O)Cc1cc(Cl)c2cc(C)ccc2n1
inactive: [18] 92 % of control | [19] 100 % of control | dose: 400.0 mg/kg/injection, schedule: Q01DX001 (ip), vehicle: saline 103 % of control and 89 % of control

COC(OC)C1OC(C)(C)OC1C(OS(=O)(=O)c1ccc(C)cc1)C1COC(C)(C)O1 (stereo not given)
inactive: dose: 100.0 mg/kg/injection, schedule: Q04DX003 (ip), vehicle: saline with Tween-80 97 % of control | dose: 200.0 mg/kg/injection, schedule: Q04DX003 (ip), vehicle: saline with Tween-80 91 % of control | dose: 400.0 mg/kg/injection, schedule: Q04DX003 (ip), vehicle: saline with Tween-80 89 % of control

Cc1ccc(S(=O)(=O)/C=C(\I)c2ccc([N+](=O)[O-])cc2)cc1
inactive: dose: 25.0 mg/kg/injection, schedule: Q01DX009 (ip), vehicle: saline with Tween-80 96 % of control | dose: 50.0 mg/kg/injection, schedule: Q01DX009 (ip), vehicle: saline with Tween-80 91 % of control | [18] 97 % of control | [4] 98 % of control | [19] 95 % of control

Cc1ccc(NC(=O)Nc2ccc(S(N)(=O)=O)cc2)c([N+](=O)[O-])c1
inactive: [15] 88 % of control | [16] 89 % of control | [17] 88 % of control

CCOC(=O)C1Nc2ccc3ccccc3c2NC1=O (stereo not given)
inactive: dose: 50.0 mg/kg/injection, schedule: Q04DX002 (ip), vehicle: Klucel (hydroxypropylcellulose) (HPC) 93 % of control | [8] 97 % of control | [9] 90 % of control

O=C(Nc1cccc(C(F)(F)F)c1)Oc1ccc(Cl)cc1Cc1ccccc1
inactive: [4] 98 % of control | [6] 93 % of control | [7] 92 % of control

N#[N+]c1ccccc1-c1nc(N)nc(N)n1
inactive: dose: 25.0 mg/kg/injection, schedule: Q01DX009 (ip), vehicle: saline 110 % of control | dose: 25.0 mg/kg/injection, schedule: Q04DX003 (ip), vehicle: saline 113 % of control | dose: 50.0 mg/kg/injection, schedule: Q01DX009 (ip), vehicle: saline 100 % of control | dose: 50.0 mg/kg/injection, schedule: Q04DX003 (ip), vehicle: saline 103 % of control | [18] 99 % of control | dose: 100.0 mg/kg/injection, schedule: Q01DX009 (ip), vehicle: saline 92 % of control | [5] 96 % of control

CC1OCC2OC(C)OC(C(COC(=O)c3ccc([N+](=O)[O-])cc3)OS(C)(=O)=O)C2O1 (stereo not given)
inactive: dose: 100.0 mg/kg/injection, schedule: Q01DX009 (ip), vehicle: Klucel (hydroxypropylcellulose) (HPC) 113 % of control | [15] 102 % of control | dose: 200.0 mg/kg/injection, schedule: Q01DX009 (ip), vehicle: Klucel (hydroxypropylcellulose) (HPC) 108 % of control | [16] 104 % of control | dose: 400.0 mg/kg/injection, schedule: Q01DX009 (ip), vehicle: Klucel (hydroxypropylcellulose) (HPC) 92 % of control | [17] 96 % of control

COc1ccc(C(=O)c2ccccc2)cc1OC
inactive: [15] 89 % of control | [16] 90 % of control | [17] 89 % of control
